Values after ≈ are worked out from the molar mass of the structure shown. Starred links: 1 amine or outer side, 2 acyl side, 3 side chain; linkers in the order of their positions; H or OH if unused. Positions of bridges follow the written chain, without caps; N, C: chain ends. Non-standard residues stand in square brackets, D forms with d. Residues, ends and D or L forms follow the SMILES beside them. X2 = CC(=O)N[C@@H]1[C@@H](O)[C@H](O)[C@@H](CO)O[C@H]1NC(=N)NCCC[C@H](N[*:1])C(=O)[*:2]; S5 = C=CCCC[C@](C)(N)C(=O)O
Columns and labels:
[1] = Hemolytic activity in BALB/c mouse red blood cells assessed as hemolysis incubated for 1 hrs; format: toxicity, cell-based, Erythrocyte; settings: read-out: HD50
Pseudomonas aeruginosa = assay: Antimicrobial activity against Pseudomonas aeruginosa ATCC 27853 assessed as growth inhibition measured after 8 hrs incubation by standard broth dilution assay; format: functional
Klebsiella pneumoniae = assay: Antimicrobial activity against Klebsiella pneumoniae ATCC 13883 assessed as growth inhibition measured after 8 hrs incubation by standard broth dilution assay; format: functional
Staphylococcus aureus = assay: Antimicrobial activity against methicillin-resistant Staphylococcus aureus ATCC 43300 assessed as growth inhibition measured after 8 hrs incubation by standard broth dilution assay; format: functional
Streptococcus pneumoniae = assay: Antimicrobial activity against Streptococcus pneumoniae ATCC 49619 assessed as growth inhibition measured after 8 hrs incubation by standard broth dilution assay; format: functional

SMILES: CC(=O)N[C@@H]1[C@@H](O)[C@H](O)[C@@H](CO)O[C@H]1NC(=N)NCCC[C@H](NC(=O)[C@@H](NC(=O)[C@@H]1CCCN1C(=O)[C@H](CCCCN)NC(=O)[C@H](CCCCN)NC(=O)[C@H](CC(C)C)NC(=O)[C@]1(C)CCC/C=C\CCC[C@](C)(NC(=O)[C@H](CCCCN)NC(=O)[C@]2(C)CCC/C=C\CCC[C@](C)(NC(=O)[C@H](CCCNC(=N)N)NC(=O)[C@H](CCCCN)NC(=O)[C@H](CCCCN)NC(=O)[C@@H](NC(=O)[C@H](CCCNC(=N)N)NC(=O)[C@H](CCCCN)NC(=O)[C@H](CCCCN)NC(C)=O)C(C)C)C(=O)N[C@@H](Cc3ccccc3)C(=O)N[C@@H](CCCCN)C(=O)N[C@@H](CC(C)C)C(=O)N2)C(=O)N[C@@H](Cc2ccc(O)cc2)C(=O)N[C@@H](Cc2c[nH]c3ccccc23)C(=O)N[C@@H](CCCNC(=N)N)C(=O)N1)C(C)C)C(N)=O (Ac-KKRVKKR[S5]FKL[S5]K[S5]YWR[S5]LKKPV[X2]-NH2; staple (Z) 8-12, 14-18)
- HC50 at 1 h [1]: 82.2 µg/mL
- MIC (Pseudomonas aeruginosa): 2.6 µg/mL (≈ 0.758 µM)
- MIC (Klebsiella pneumoniae): 2.5 µg/mL (≈ 0.729 µM)
- MIC (Staphylococcus aureus): 2.5 µg/mL (≈ 0.729 µM)
- MIC (Streptococcus pneumoniae): 2.4 µg/mL (≈ 0.699 µM)

SMILES: CC(=O)N[C@@H](CCCCN)C(=O)N[C@@H](CCCCN)C(=O)N[C@@H](CCCNC(=N)N)C(=O)N[C@@]1(C)CCC/C=C\CCC[C@@](C)(C(=O)N[C@@H](Cc2ccccc2)C(=O)N[C@@H](CCCCN)C(=O)N[C@@H](CC(C)C)C(=O)N[C@@H](CC(C)C)C(=O)N[C@@H](CCCCN)C(=O)N[C@@]2(C)CCC/C=C\CCC[C@@](C)(C(=O)N[C@@H](CC(C)C)C(=O)N[C@@H](CCCCN)C(=O)N[C@@H](CCCCN)C(=O)N3CCC[C@H]3C(=O)N[C@H](C(=O)N[C@@H](CCCNC(=N)N)C(N)=O)C(C)C)NC(=O)[C@H](CCCNC(=N)N)NC(=O)[C@H](Cc3c[nH]c4ccccc34)NC(=O)[C@H](Cc3ccc(O)cc3)NC2=O)NC(=O)[C@H](CCCNC(=N)N)NC(=O)[C@H](CCCCN)NC(=O)[C@H](Cc2c[nH]c3ccccc23)NC1=O (Ac-KKR[S5]WKR[S5]FKLLK[S5]YWR[S5]LKKPVR-NH2; staple (Z) 4-8, 14-18)
- HC50 at 1 h [1]: 10.5 µg/mL
- MIC (Pseudomonas aeruginosa): 5 µg/mL (≈ 1.52 µM)
- MIC (Klebsiella pneumoniae): 4.9 µg/mL (≈ 1.48 µM)
- MIC (Staphylococcus aureus): 4.9 µg/mL (≈ 1.48 µM)
- MIC (Streptococcus pneumoniae): 4.7 µg/mL (≈ 1.42 µM)

SMILES: CC(=O)N[C@@H](CC(C)C)C(=O)N[C@@H](CCCCN)C(=O)N[C@@H](CCCNC(=N)N)C(=O)N[C@H](C(=O)N[C@@H](Cc1c[nH]c2ccccc12)C(=O)N[C@@H](CCCCN)C(=O)N[C@@H](CCCNC(=N)N)C(=O)N[C@H](C(=O)N[C@@H](Cc1ccccc1)C(=O)N[C@@H](CCCCN)C(=O)N[C@@H](CC(C)C)C(=O)N[C@@H](CCCCN)C(=O)N[C@@H](CCCCN)C(=O)N[C@@]1(C)CCC/C=C\CCC[C@@](C)(C(=O)N[C@@H](CC(C)C)C(=O)N[C@@H](CCCCN)C(=O)N[C@@H](CCCCN)C(=O)N2CCC[C@H]2C(=O)N[C@H](C(=O)N[C@@H](CCCNC(=N)N)C(N)=O)C(C)C)NC(=O)[C@H](CCCNC(=N)N)NC(=O)[C@H](Cc2c[nH]c3ccccc23)NC(=O)[C@H](Cc2ccc(O)cc2)NC1=O)C(C)C)C(C)C (Ac-LKRVWKRVFKLKK[S5]YWR[S5]LKKPVR-NH2; staple (Z) 14-18)
- HC50 at 1 h [1]: 70.1 µg/mL
- MIC (Pseudomonas aeruginosa): 5 µg/mL (≈ 1.54 µM)
- MIC (Klebsiella pneumoniae): 38 µg/mL (≈ 11.7 µM)
- MIC (Staphylococcus aureus): 10.1 µg/mL (≈ 3.11 µM)
- MIC (Streptococcus pneumoniae): 4.7 µg/mL (≈ 1.45 µM)

SMILES: CC(=O)N[C@@H](CC(C)C)C(=O)N[C@@H](CCCCN)C(=O)N[C@@H](CCCNC(=N)N)C(=O)N[C@H](C(=O)N[C@@H](Cc1c[nH]c2ccccc12)C(=O)N[C@@H](CCCCN)C(=O)N[C@@H](CCCNC(=N)N)C(=O)N[C@@H](CCCCN)C(=O)N[C@@H](Cc1ccccc1)C(=O)N[C@@H](CCCCN)C(=O)N[C@@H](CC(C)C)C(=O)N[C@@H](CC(C)C)C(=O)N[C@@H](CCCCN)C(=O)N[C@@]1(C)CCC/C=C\CCC[C@@](C)(C(=O)N[C@@H](CC(C)C)C(=O)N[C@@H](CCCCN)C(=O)N[C@@H](CCCCN)C(=O)N2CCC[C@H]2C(=O)N[C@H](C(=O)N[C@@H](CCCNC(=N)N)C(N)=O)C(C)C)NC(=O)[C@H](CCCNC(=N)N)NC(=O)[C@H](Cc2c[nH]c3ccccc23)NC(=O)[C@H](Cc2ccc(O)cc2)NC1=O)C(C)C (Ac-LKRVWKRKFKLLK[S5]YWR[S5]LKKPVR-NH2; staple (Z) 14-18)
- HC50 at 1 h [1]: 32.3 µg/mL
- MIC (Pseudomonas aeruginosa): 5 µg/mL (≈ 1.53 µM)
- MIC (Klebsiella pneumoniae): 10.1 µg/mL (≈ 3.1 µM)
- MIC (Staphylococcus aureus): 10.1 µg/mL (≈ 3.1 µM)
- MIC (Streptococcus pneumoniae): 2.4 µg/mL (≈ 0.736 µM)

SMILES: CC(=O)N[C@@H](CC(C)C)C(=O)N[C@@H](CCCCN)C(=O)N[C@@H](CCCNC(=N)N)C(=O)N[C@H](C(=O)N[C@@H](Cc1c[nH]c2ccccc12)C(=O)N[C@@H](CCCCN)C(=O)N[C@@H](CCCNC(=N)N)C(=O)N[C@H](C(=O)N[C@@H](Cc1ccccc1)C(=O)N[C@@H](CCCCN)C(=O)N[C@@H](CC(C)C)C(=O)N[C@@H](CC(C)C)C(=O)N[C@@H](CCCCN)C(=O)N[C@@]1(C)CCC/C=C\CCC[C@@](C)(C(=O)N[C@@H](CC(C)C)C(=O)N[C@@H](CCCCN)C(=O)N[C@@H](CCCCN)C(=O)N2CCC[C@H]2C(=O)N[C@H](C(=O)N[C@@H](CCCNC(=N)N)C(N)=O)C(C)C)NC(=O)[C@H](CCCNC(=N)N)NC(=O)[C@H](Cc2c[nH]c3ccccc23)NC(=O)[C@H](Cc2ccc(O)cc2)NC1=O)C(C)C)C(C)C (Ac-LKRVWKRVFKLLK[S5]YWR[S5]LKKPVR-NH2; staple (Z) 14-18)
- HC50 at 1 h [1]: 12.2 µg/mL
- MIC (Pseudomonas aeruginosa): 5 µg/mL (≈ 1.55 µM)
- MIC (Klebsiella pneumoniae): 2.5 µg/mL (≈ 0.773 µM)
- MIC (Staphylococcus aureus): 4.9 µg/mL (≈ 1.52 µM)
- MIC (Streptococcus pneumoniae): 2.4 µg/mL (≈ 0.742 µM)

SMILES: CC(=O)N[C@@H](CCCCN)C(=O)N[C@@H](CCCCN)C(=O)N[C@@H](CCCNC(=N)N)C(=O)N[C@H](C(=O)N[C@@H](CCCCN)C(=O)N[C@@H](CCCCN)C(=O)N[C@@H](CCCNC(=N)N)C(=O)N[C@@]1(C)CCC/C=C\CCC[C@@](C)(C(=O)N[C@@H](CCCCN)C(=O)N[C@@]2(C)CCC/C=C\CCC[C@@](C)(C(=O)N[C@@H](CC(C)C)C(=O)N[C@@H](CCCCN)C(=O)N[C@@H](CCCCN)C(=O)N3CCC[C@H]3C(=O)N[C@H](C(=O)N[C@@H](CCCNC(=N)N)C(N)=O)C(C)C)NC(=O)[C@H](CCCNC(=N)N)NC(=O)[C@H](Cc3c[nH]c4ccccc34)NC(=O)[C@H](Cc3ccc(O)cc3)NC2=O)NC(=O)[C@H](CC(C)C)NC(=O)[C@H](CCCCN)NC(=O)[C@H](Cc2ccccc2)NC1=O)C(C)C (Ac-KKRVKKR[S5]FKL[S5]K[S5]YWR[S5]LKKPVR-NH2; staple (Z) 8-12, 14-18)
- HC50 at 1 h [1]: 56.3 µg/mL
- MIC (Pseudomonas aeruginosa): 2.6 µg/mL (≈ 0.805 µM)
- MIC (Klebsiella pneumoniae): 2.5 µg/mL (≈ 0.774 µM)
- MIC (Staphylococcus aureus): 2.5 µg/mL (≈ 0.774 µM)
- MIC (Streptococcus pneumoniae): 2.4 µg/mL (≈ 0.743 µM)
